Experimental data published in patent publication US9555029B2 (HIKMA PHARMACEUTICALS, priority 2013, dated 2017).
Read-outs that look alike come from different tables or passages of the source.

Tests used:
[1] = for AUCT/∞ / Kel / T1/2el: mean
From the text: Subjects were included only if they were not older than 45 years (as opposed to no upper limit). Also, in inclusion criteria the lower threshold for the body mass index was 21.00 (as opposed to 18.00) kg/m^2.

[2] = cited from earlier work; for Kel / T1/2el: arithmetic mean; for AUCT / Cmax: geometric mean
[3] = cited from earlier work; for AUCT / Cmax: geometric mean
[4] = cited from earlier work; for AUCT / Cmax: geometric mean; remark: listed apart in the source
[5] = cited from earlier work; for Kel / T1/2el: arithmetic mean
[6] = cited from earlier work; for Kel / T1/2el: arithmetic mean; for AUCT / Cmax: geometric mean; remark: listed apart in the source
[7] = cited from earlier work
[8] = Treatment-2 (day 9): colchicine 0.6 mg + cimetidine 800 mg after double dose day 4, once daily days 5-8, fasted, mean
[9] = Treatment-1 (day 1): colchicine 0.6 mg alone, fasted, propafenone study
[10] = Treatment-2 (day 9): colchicine 0.6 mg + propafenone 225 mg after twice daily days 4-8, fasted
[11] = coadministration with propafenone vs colchicine alone
[12] = Treatment-1: colchicine 0.6 mg alone (day 1, fasted), clarithromycin study
[13] = Treatment-2: colchicine 0.6 mg + clarithromycin 250 mg twice daily (days 22-29)
[14] = Treatment-1: colchicine 0.6 mg alone (day 1, fasted), ketoconazole study, arithmetic mean
[15] = Treatment-1: colchicine 0.6 mg alone (day 1, fasted), ketoconazole study
[16] = Treatment-2: colchicine 0.6 mg (day 19) + ketoconazole 200 mg twice daily
[17] = Treatment-1: colchicine 0.6 mg alone (day 1, fasted), ritonavir study, arithmetic mean
[18] = Treatment-1: colchicine 0.6 mg alone (day 1, fasted), ritonavir study
[19] = Treatment-2: colchicine 0.6 mg (day 19) + ritonavir 100 mg twice daily (days 15-19)
[20] = Treatment-1: colchicine 0.6 mg alone (day 1, fasted), verapamil ER study
[21] = Treatment-1: colchicine 0.6 mg alone (day 1, fasted), verapamil ER study, geometric mean
[22] = Treatment-2: colchicine 0.6 mg (day 19) + verapamil ER 240 mg once daily (days 15-19)
[23] = Treatment-1: colchicine 0.6 mg alone (day 1, fasted), azithromycin study
[24] = Treatment-2: colchicine 0.6 mg (day 19) + azithromycin 500 mg day 15, 250 mg once daily days 16-19

COc1cc2c(c(OC)c1OC)-c1ccc(OC)c(=O)cc1[C@@H](NC(C)=O)CC2 [Colchicine, (S)N-(5,6,7,9-tetrahydro-1,2,3,10-tetramethoxy-9-oxobenzo[alpha]heptalen-7-yl)acetamide]
T1/2el (Treatment-1 (day 1): colchicine 0.6 mg alone, fasted, cimetidine study, mean): 35.46 h
AUCT/∞ [8]: 86.53%
Kel [8]: 0.0222 h⁻¹
T1/2el [8]: 31.54 h
Decrease of colchicine Cmax (coadministration with cimetidine vs colchicine alone): 33%
Decrease of colchicine AUC (coadministration with cimetidine vs colchicine alone, not significant): 15%
AUCT/∞ [1, 9]: 88.21%
Kel [1, 9]: 0.0241 h⁻¹
T1/2el [1, 9]: 29.74 h
AUCT/∞ [1, 10]: 89.16%
Kel [1, 10]: 0.0250 h⁻¹
T1/2el [1, 10]: 28.25 h
Tmax (median hours) ([1]; Treatment-2 (day 9): colchicine 0.6 mg + propafenone 225 mg after twice daily days 4-8, fasted, median): 1.00 h
Increase of colchicine AUC [1, 11]: 1%
Increase of colchicine Cmax [1, 11]: 7%
Kel [2, 12]: 0.1324 h⁻¹
T1/2el [2, 12]: 8.89 h
CLTOT/F [2, 12]: 46.8 L/h
AUCT [2, 12]: 12,370 pg · h/mL
Cmax [2, 12]: 2,840 pg/mL
Kel [2, 13]: 0.0296 h⁻¹
T1/2el [2, 13]: 30.31 h
CLTOT/F [2, 13]: 12.0 L/h
AUCT [2, 13]: 41,950 pg · h/mL
Cmax [2, 13]: 8,440 pg/mL
Kel [3, 14]: 0.1491 h⁻¹
T1/2el [3, 14]: 6.28 h
CLTOT/F [3, 15]: 49.3 L/h
AUCT [3, 15]: 11,990 pg · h/mL
Cmax [3, 15]: 2,780 pg/mL
T1/2el ([3]; Treatment-2: colchicine 0.6 mg (day 19) + ketoconazole 200 mg twice daily, arithmetic mean): 26.06 h
CLTOT/F [3, 16]: 14.8 L/h
AUCT [3, 16]: 34,380 pg · h/mL
Cmax [3, 16]: 5,270 pg/mL
Kel [4, 17]: 0.1666 h⁻¹
T1/2el [4, 17]: 5.15 h
CLTOT/F [4, 18]: 67.93 L/h
AUCT [4, 18]: 8,410 pg · h/mL
Cmax [4, 18]: 1,870 pg/mL
T1/2el ([4]; Treatment-2: colchicine 0.6 mg (day 19) + ritonavir 100 mg twice daily (days 15-19), arithmetic mean): 17.41 h
CLTOT/F [4, 19]: 18.59 L/h
AUCT [4, 19]: 29,050 pg · h/mL
Cmax [4, 19]: 4,990 pg/mL
Kel [5, 20]: 0.1409 h⁻¹
T1/2el [5, 20]: 4.3 h
CLTOT/F [5, 20]: 43.93 L/h
AUCT [5, 21]: 13,090 pg · h/mL
Cmax [5, 21]: 2,970 pg/mL
Kel [5, 22]: 0.0480 h⁻¹
T1/2el [5, 22]: 17.17 h
CLTOT/F [5, 22]: 21.01 L/h
Cmax ([5]; Treatment-2: colchicine 0.6 mg (day 19) + verapamil ER 240 mg once daily (days 15-19), geometric mean): 3,850 pg/mL
Kel [6, 23]: 0.147 h⁻¹
T1/2el [6, 23]: 6.07 h
CLTOT/F [6, 23]: 50.24 L/h
AUCT [6, 23]: 11,980 pg · h/mL
Cmax [6, 23]: 2,740 pg/mL
Kel [6, 24]: 0.1426 h⁻¹
T1/2el [6, 24]: 6.71 h
CLTOT/F [6, 24]: 35.01 L/h
AUCT [6, 24]: 17,160 pg · h/mL
Cmax [6, 24]: 3,050 pg/mL
Colchicine passing unchanged in the urine ([7]; in vivo): up to 20%
Time to peak concentrations in the blood ([7]; oral, patients with normal organ function): ≤ 2 h
